Patent US20240208992A1, “MACROCYCLES AS CFTR MODULATORS” (Idorsia Pharmaceuticals Ltd, priority 2021, published 2024)
pEC50: −log10 of the molar value.

Molecular target: human F508del-CFTR (Homo sapiens, UniProt P13569, DEL508-508)
Assay: F508del-CFTR cell surface expression (corrector activity), DiscoveRx ß-galactosidase complementation chemiluminescence assay in recombinant U2OS cell line;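 note: U2OS cells co-expressing ProLink-tagged F508del-CFTR and a membrane-anchored enzyme acceptor, where more surface CFTR restores β-galactosidase activity measured by chemiluminescence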
Conditions: for Emax: arithmetic mean values; for pEC50: EC50, F508del-CFTR cell surface expression, geomean values
[1] = U2OS, in relation to the Emax of the corrector lumacaftor (=100%), U2OS cell line, 16h compound incubation
[2] = in relation to the Emax of the corrector lumacaftor (=100%), U2OS cell line, 16h compound incubation
[3] = U2OS cell line, 16h compound incubation
[4] = U2OS, in relation to Emax of corrector lumacaftor (=100%)

human F508del-CFTR, sequence (P13569 with tags, fused parts or gaps DEL508-508): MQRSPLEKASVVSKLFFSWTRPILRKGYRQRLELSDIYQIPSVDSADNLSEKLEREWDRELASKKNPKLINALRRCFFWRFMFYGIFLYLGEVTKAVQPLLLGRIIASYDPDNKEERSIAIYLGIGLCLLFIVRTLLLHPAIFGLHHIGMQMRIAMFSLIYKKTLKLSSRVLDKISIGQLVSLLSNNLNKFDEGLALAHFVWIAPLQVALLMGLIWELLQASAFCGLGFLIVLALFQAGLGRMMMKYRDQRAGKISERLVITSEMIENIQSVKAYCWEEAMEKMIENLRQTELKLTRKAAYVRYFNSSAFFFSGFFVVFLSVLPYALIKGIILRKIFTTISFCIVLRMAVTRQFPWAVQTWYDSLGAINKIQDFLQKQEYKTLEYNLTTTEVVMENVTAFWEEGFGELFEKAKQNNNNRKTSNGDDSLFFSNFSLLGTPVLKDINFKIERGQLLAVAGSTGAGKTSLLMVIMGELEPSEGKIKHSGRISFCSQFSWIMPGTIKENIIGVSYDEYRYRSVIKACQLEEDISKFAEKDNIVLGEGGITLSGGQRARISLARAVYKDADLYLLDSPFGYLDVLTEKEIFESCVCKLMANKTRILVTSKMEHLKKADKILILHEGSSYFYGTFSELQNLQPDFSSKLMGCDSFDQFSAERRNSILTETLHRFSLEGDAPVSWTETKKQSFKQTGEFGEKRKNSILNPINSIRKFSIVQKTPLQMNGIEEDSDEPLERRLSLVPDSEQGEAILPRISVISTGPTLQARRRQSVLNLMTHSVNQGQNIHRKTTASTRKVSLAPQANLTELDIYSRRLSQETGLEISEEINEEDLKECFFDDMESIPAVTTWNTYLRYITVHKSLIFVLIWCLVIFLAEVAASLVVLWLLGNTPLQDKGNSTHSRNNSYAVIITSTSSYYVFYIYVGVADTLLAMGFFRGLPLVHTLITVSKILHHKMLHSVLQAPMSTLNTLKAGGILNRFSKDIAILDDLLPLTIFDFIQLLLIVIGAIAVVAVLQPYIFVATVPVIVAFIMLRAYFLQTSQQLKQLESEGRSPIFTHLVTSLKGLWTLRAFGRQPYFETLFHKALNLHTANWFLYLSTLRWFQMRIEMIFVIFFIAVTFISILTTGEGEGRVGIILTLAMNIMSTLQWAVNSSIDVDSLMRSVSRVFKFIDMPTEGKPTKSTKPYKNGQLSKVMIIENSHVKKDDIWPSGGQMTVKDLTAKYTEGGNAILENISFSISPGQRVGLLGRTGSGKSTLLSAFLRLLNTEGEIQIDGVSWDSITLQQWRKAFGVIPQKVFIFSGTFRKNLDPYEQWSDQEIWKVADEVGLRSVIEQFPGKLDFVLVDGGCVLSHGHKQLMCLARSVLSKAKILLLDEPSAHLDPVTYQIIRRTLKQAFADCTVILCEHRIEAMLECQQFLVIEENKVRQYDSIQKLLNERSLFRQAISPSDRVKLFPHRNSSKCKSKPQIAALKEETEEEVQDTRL

| SMILES | Emax [1] [%] | pEC50 [3] | also measured |
| --- | --- | --- | --- |
| CN1C(=O)C[C@@H](C(=O)NCCc2ccc3c(c2)OCO3)NC(=O)c2c(ccc3ccccc23)OC[C@@H](Cc2ccccc2)NC(=O)CN(CCC2CCCCC2)C(=O)[C@@H]1CC1CCC1 (racemic) [Example 292, (3RS,7S,13R)-N-(2-(benzo[d][1,3]dioxol-5-yl)ethyl)-13-benzyl-7-(cyclobutylmethyl)-9-(2-cyclohexylethyl)-6-methyl-1,5,8,11-tetraoxo-1,2,3,4,5,6,7,8,9,10,11,12,13,14-tetradecahydronaphtho[1,2-p][1]oxa[4,7,10,14]tetraazacycloheptadecine-3-carboxamide] | 191 | – | – |
| COc1cccc(CCNC(=O)[C@@H]2CC(=O)N(C)[C@@H](CC3CCCC3)C(=O)N(C[C@@H]3CCCCO3)CC(=O)N[C@H](Cc3ccccc3)COc3ccc4ccccc4c3C(=O)N2)c1 (racemic) [Example 293, (3RS,7S,13R)-13-benzyl-7-(cyclopentylmethyl)-N-(3-methoxyphenethyl)-6-methyl-1,5,8,11-tetraoxo-9-(((S)-tetrahydro-2H-pyran-2-yl)methyl)-1,2,3,4,5,6,7,8,9,10,11,12,13,14-tetradecahydronaphtho[1,2-p][1]oxa[4,7,10,14]tetraazacycloheptadecine-3-carboxamide] | – | – | Emax [2]: 137% |
| COc1cccc(CCNC(=O)[C@@H]2CC(=O)N(C)[C@@H](CC3CCCCC3)C(=O)N(C[C@@H]3CCCCO3)CC(=O)N[C@H](Cc3ccccc3)COc3ccc4ccccc4c3C(=O)N2)c1 (racemic) [Example 294, (3RS,7S,13R)-13-benzyl-7-(cyclohexylmethyl)-N-(3-methoxyphenethyl)-6-methyl-1,5,8,11-tetraoxo-9-(((S)-tetrahydro-2H-pyran-2-yl)methyl)-1,2,3,4,5,6,7,8,9,10,11,12,13,14-tetradecahydronaphtho[1,2-p][1]oxa[4,7,10,14]tetraazacycloheptadecine-3-carboxamide] | 138 | 6.58 | – |
| COc1cccc(CCNC(=O)[C@@H]2CC(=O)N(C)[C@@H](CC3CCCC3)C(=O)N(C[C@@H]3CCCCO3)CC(=O)N[C@H](Cc3ccccc3)COc3ccc4ccccc4c3C(=O)N2)c1 (racemic) [Example 295, (3RS,7S,13R)-13-benzyl-7-(cyclopentylmethyl)-N-(3-methoxyphenethyl)-6-methyl-1,5,8,11-tetraoxo-9-(((R)-tetrahydro-2H-pyran-2-yl)methyl)-1,2,3,4,5,6,7,8,9,10,11,12,13,14-tetradecahydronaphtho[1,2-p][1]oxa[4,7,10,14]tetraazacycloheptadecine-3-carboxamide] | – | – | Emax [2]: 174% |
| COc1cccc(CCNC(=O)[C@@H]2CC(=O)N(C)[C@@H](CC3CCCCC3)C(=O)N(C[C@H]3CCCCO3)CC(=O)N[C@H](Cc3ccccc3)COc3ccc4ccccc4c3C(=O)N2)c1 (racemic) [Example 296, (3RS,7S,13R)-13-benzyl-7-(cyclohexylmethyl)-N-(3-methoxyphenethyl)-6-methyl-1,5,8,11-tetraoxo-9-(((R)-tetrahydro-2H-pyran-2-yl)methyl)-1,2,3,4,5,6,7,8,9,10,11,12,13,14-tetradecahydronaphtho[1,2-p][1]oxa[4,7,10,14]tetraazacycloheptadecine-3-carboxamide] | 144 | – | – |
| COc1cccc(CCNC(=O)[C@@H]2CC(=O)N(C)[C@@H](CC(C)C)C(=O)N(CC[C@H]3CCCCO3)CC(=O)N[C@H](Cc3ccccc3)COc3ccc4ccccc4c3C(=O)N2)c1 (racemic) [Example 297, (3RS,7S,13R)-13-benzyl-7-isobutyl-N-(3-methoxyphenethyl)-6-methyl-1,5,8,11-tetraoxo-9-(2-((SR)-tetrahydro-2H-pyran-2-yl)ethyl)-1,2,3,4,5,6,7,8,9,10,11,12,13,14-tetradecahydronaphtho[1,2-p][1]oxa[4,7,10,14]tetraazacycloheptadecine-3-carboxamide] | 225 | 6.71 | – |
| COc1cccc(CCNC(=O)[C@@H]2CC(=O)N(C)[C@@H](CC3CCCC3)C(=O)N(CC[C@H]3CCCCO3)CC(=O)N[C@H](Cc3ccccc3)COc3ccc4ccccc4c3C(=O)N2)c1 (racemic) [Example 298, (3RS,7S,13R)-13-benzyl-7-(cyclopentylmethyl)-N-(3-methoxyphenethyl)-6-methyl-1,5,8,11-tetraoxo-9-(2-((SR)-tetrahydro-2H-pyran-2-yl)ethyl)-1,2,3,4,5,6,7,8,9,10,11,12,13,14-tetradecahydronaphtho[1,2-p][1]oxa[4,7,10,14]tetraazacycloheptadecine-3-carboxamide] | 186 | 6.66 | – |
| COc1cccc(CCNC(=O)[C@@H]2CC(=O)N(C)[C@@H](CC3CCCCC3)C(=O)N(CC[C@H]3CCCCO3)CC(=O)N[C@H](Cc3ccccc3)COc3ccc4ccccc4c3C(=O)N2)c1 (racemic) [Example 299, (3RS,7S,13R)-13-benzyl-7-(cyclohexylmethyl)-N-(3-methoxyphenethyl)-6-methyl-1,5,8,11-tetraoxo-9-(2-((SR)-tetrahydro-2H-pyran-2-yl)ethyl)-1,2,3,4,5,6,7,8,9,10,11,12,13,14-tetradecahydronaphtho[1,2-p][1]oxa[4,7,10,14]tetraazacycloheptadecine-3-carboxamide] | 136 | 6.96 | – |
| COc1cccc(CCNC(=O)[C@@H]2CC(=O)N(C)[C@@H](CC3CCCC3)C(=O)N(CCC3CCCCC3)CC(=O)N[C@H](Cc3ccccc3)COc3ccc4ccccc4c3C(=O)N2)c1 (racemic) [Example 300, (3RS,7S,13R)-13-benzyl-9-(2-cyclohexylethyl)-7-(cyclopentylmethyl)-N-(3-methoxyphenethyl)-6-methyl-1,5,8,11-tetraoxo-1,2,3,4,5,6,7,8,9,10,11,12,13,14-tetradecahydronaphtho[1,2-p][1]oxa[4,7,10,14]tetraazacycloheptadecine-3-carboxamide] | 210 | – | – |
| COc1cccc(CCNC(=O)[C@@H]2CC(=O)N(C)[C@@H](CC3CCCCC3)C(=O)N(CCC3CCCCC3)CC(=O)N[C@H](Cc3ccccc3)COc3ccc4ccccc4c3C(=O)N2)c1 (racemic) [Example 301, (3RS,7S,13R)-13-benzyl-9-(2-cyclohexylethyl)-7-(cyclohexylmethyl)-N-(3-methoxyphenethyl)-6-methyl-1,5,8,11-tetraoxo-1,2,3,4,5,6,7,8,9,10,11,12,13,14-tetradecahydronaphtho[1,2-p][1]oxa[4,7,10,14]tetraazacycloheptadecine-3-carboxamide] | 202 | – | – |
| COc1cccc(CCNC(=O)[C@@H]2CC(=O)N(C)[C@@H](CC3CCC3)C(=O)N(CCC3CCCCC3)CC(=O)N[C@H](Cc3ccccc3)COc3ccc4ccccc4c3C(=O)N2)c1 (racemic) [Example 302, (3RS,7S,13R)-13-benzyl-7-(cyclobutylmethyl)-9-(2-cyclohexylethyl)-N-(3-methoxyphenethyl)-6-methyl-1,5,8,11-tetraoxo-1,2,3,4,5,6,7,8,9,10,11,12,13,14-tetradecahydronaphtho[1,2-p][1]oxa[4,7,10,14]tetraazacycloheptadecine-3-carboxamide] | 193 | 6.97 | – |
| COc1cccc(CCNC(=O)[C@@H]2CC(=O)N(C)[C@@H](CC(C)C)C(=O)N(CCC3CCCCC3)CC(=O)N[C@H](Cc3ccccc3)COc3ccc4ccccc4c3C(=O)N2)c1 (racemic) [Example 303, (3RS,7S,13R)-13-benzyl-9-(2-cyclohexylethyl)-7-isobutyl-N-(3-methoxyphenethyl)-6-methyl-1,5,8,11-tetraoxo-1,2,3,4,5,6,7,8,9,10,11,12,13,14-tetradecahydronaphtho[1,2-p][1]oxa[4,7,10,14]tetraazacycloheptadecine-3-carboxamide] | 275 | 6.74 | – |
| COc1cccc2c1C(=O)N[C@H](C(=O)NCCc1ccc3c(c1)OCO3)CC(=O)N(C)[C@@H](CC(C)C)C(=O)N(CC[C@H]1CCCCO1)CC(=O)N[C@H](Cc1ccccc1)CO2 (racemic) [Example 304, (3R,9S,13S)-N-(2-(benzo[d][1,3]dioxol-5-yl)ethyl)-3-benzyl-9-isobutyl-16-methoxy-10-methyl-5,8,11,15-tetraoxo-7-(2-((RS)-tetrahydro-2H-pyran-2-yl)ethyl)-2,3,4,5,6,7,8,9,10,11,12,13,14,15-tetradecahydrobenzo[p][1]oxa[4,7,10,14]tetraazacycloheptadecine-13-carboxamide] | 193 | 6.24 | – |
| COc1cccc(CCNC(=O)[C@@H]2CC(=O)N(C)[C@@H](CC(C)C)C(=O)N(CC[C@H]3CCCCO3)CC(=O)N[C@H](Cc3ccccc3)COc3cccc(OC)c3C(=O)N2)c1 (racemic) [Example 310] | 202 | 6.10 | – |
| COc1cccc(CCNC(=O)[C@@H]2CC(=O)N(C)[C@@H](CC(C)C)C(=O)N(C)[C@@H](CO)C(=O)N[C@H](Cc3ccccc3)COc3ccc4ccccc4c3C(=O)N2)c1 (racemic) [Example 718, (3S,7S,10RS,13R)-13-benzyl-10-(hydroxymethyl)-7-isobutyl-N-(3-methoxyphenethyl)-6,9-dimethyl-1,5,8,11-tetraoxo-1,2,3,4,5,6,7,8,9,10,11,12,13,14-tetradecahydronaphtho[1,2-p][1]oxa[4,7,10,14]tetraazacycloheptadecine-3-carboxamide] | – | – | Emax [4]: 272% |
| Cc1cc(CCNC(=O)[C@@H]2CC(=O)N(C)[C@@H](CC(C)C)C(=O)N(C)[C@@H](COC(C)(C)C)C(=O)N[C@H](Cc3ccccc3)COc3ccc4ccccc4c3C(=O)N2)on1 (racemic) [Example 719, (3S,7S,10RS,13R)-13-benzyl-10-(tert-butoxymethyl)-7-isobutyl-6,9-dimethyl-N-(2-(3-methylisoxazol-5-yl)ethyl)-1,5,8,11-tetraoxo-1,2,3,4,5,6,7,8,9,10,11,12,13,14-tetradecahydronaphtho[1,2-p][1]oxa[4,7,10,14]tetraazacycloheptadecine-3-carboxamide] | – | – | pEC50 (U2OS cells, 16h compound incubation): 6.91; Emax [4]: 313% |
